According to ChEMBL document CHEMBL1201862, “PubChem BioAssay data set” (2004):
Calls of active or inactive are those of the source. Rule as the data show it, for most assays here: actives have a measured EC50 and inactives only a lower limit.

What was measured:
[1] = biological target: Cytochrome P450 3A4 (Homo sapiens, UniProt P08684);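 also: CYP3A4 tested as one member of a cytochrome P450 panel screen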
[2] = biological target: Cytochrome P450 2C9 (Homo sapiens, UniProt P11712)
[3] = Luminescence Cell-Based Dose Confirmation HTS to Identify Activators of 5'UTR Stem-Loop Driven Alpha-Synuclein mRNA Translation in H4 Neuroglioblastoma Cells. [Related pubchem assays: 1829 (Project Summary), 1814 (Primary HTS)]; format: functional
[4] = Luminescence Cell-Based Dose Response HTS to Identify Activators of Luciferase Translation or Activity in H4 […] Cells. [Related pubchem assays: 1829 (Project Summary), 1814 (Primary HTS)]; format: functional
[5] = test system: H4; assay: Luminescence Cell-Based Dose Response HTS to Identify Activators of 5'UTR Stem-Loop Driven Prion Protein mRNA Translation in H4 Neuroglioblastoma Cells. [Related pubchem assays: 1829 (Project Summary), 1814 (Primary HTS)]; format: functional; conditions: Homo sapiens
[6] = biological target: Cytochrome P450 2D6 (Homo sapiens, UniProt P10635);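 also: CYP2D6 member of a cytochrome P450 panel assay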
[7] = Luminescence Cell-Based Dose Retest to Confirm Inhibitors of Cancer Stem Cells. [Related pubchem assays (depositor defined):AID2717, AID2721]; format: functional; conditions: Homo sapiens
[8] = test system: Streptococcus sp. 'group A'; assay: growth inhibition of control SK(-) GAS strain, dose response, counter-screen for streptokinase expression inhibitor project, luminescence, kanamycin, BacTiterGlo, confirmation (AID 1900); format: functional, organism-based
[9] = biological target: T1, Heat shock factor protein 1 (Mus musculus, UniProt P38532); assay: inhibition of MG132-induced HSE-luciferase signal, confirmation, cell-based, NIH3T3, luminescence, dose retest (AID 2382); format: functional;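 also: NIH3T3 fibroblasts with HSF1-driven luciferase reporter stressed by proteasome inhibitor MG132; luminescence from HSF1-driven luciferase expression after 8 hours of MG132 stress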
T1 sequence (P38532 whole entry): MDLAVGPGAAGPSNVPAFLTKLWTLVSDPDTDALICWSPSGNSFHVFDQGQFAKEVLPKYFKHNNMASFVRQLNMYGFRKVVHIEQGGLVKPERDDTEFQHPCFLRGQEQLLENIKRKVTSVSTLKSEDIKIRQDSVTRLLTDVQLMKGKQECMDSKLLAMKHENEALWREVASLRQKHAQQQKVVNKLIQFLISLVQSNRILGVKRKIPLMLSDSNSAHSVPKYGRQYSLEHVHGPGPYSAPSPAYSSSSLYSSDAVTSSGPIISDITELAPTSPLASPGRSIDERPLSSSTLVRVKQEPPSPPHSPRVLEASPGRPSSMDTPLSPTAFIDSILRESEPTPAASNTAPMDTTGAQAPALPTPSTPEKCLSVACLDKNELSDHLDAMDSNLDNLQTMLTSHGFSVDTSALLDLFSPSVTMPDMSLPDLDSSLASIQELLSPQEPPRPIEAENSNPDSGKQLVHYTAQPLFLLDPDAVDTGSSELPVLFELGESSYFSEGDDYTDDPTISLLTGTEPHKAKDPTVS

[10] = biological target: T2, Streptokinase A (Streptococcus pyogenes serotype M1, UniProt P10520); assay: S. pyogenes streptokinase expression inhibitors, potency, dose response, plasminogen activation absorbance, OD405 (AID 1914); format: functional, Streptococcus pyogenes M1 GAS;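 also: secreted streptokinase activity via plasminogen activation per viability signal from cell pellet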
T2 sequence (P10520 whole entry): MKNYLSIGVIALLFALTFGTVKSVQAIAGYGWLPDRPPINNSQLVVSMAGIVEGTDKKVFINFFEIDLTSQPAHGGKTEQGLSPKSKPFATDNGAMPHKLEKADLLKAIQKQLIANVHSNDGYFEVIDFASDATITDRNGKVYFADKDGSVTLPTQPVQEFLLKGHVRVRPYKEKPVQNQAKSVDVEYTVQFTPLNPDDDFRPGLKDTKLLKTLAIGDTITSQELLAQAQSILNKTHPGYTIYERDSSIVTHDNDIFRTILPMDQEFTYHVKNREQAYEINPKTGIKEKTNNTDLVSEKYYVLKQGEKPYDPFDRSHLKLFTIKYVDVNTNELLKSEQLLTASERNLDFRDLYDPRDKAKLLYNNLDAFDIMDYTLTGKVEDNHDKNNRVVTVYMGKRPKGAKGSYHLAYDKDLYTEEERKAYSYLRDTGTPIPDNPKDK

[11] = test system: Streptococcus; assay: Group A Streptococcus viability loss, dose response, counter-screen for streptokinase expression inhibitor project, luminescence, BacTiterGlo (AID 1915); format: functional, organism-based;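 also: potency for reduction of bacterial viability or growth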
[12] = biological target: T1, Heat shock factor protein 1; assay: HSF1 potentiators in luciferase reporter cells, confirmation, cell-based, NIH3T3, luminescence, dose retest (AID 435004); format: functional;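 also: stress induced by proteasome inhibitor MG132 added 30 min after compound; luciferase reporter driven by HSF1 response element in NIH3T3 cells; actives raise luminescence as potentiators of the MG132 stress response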
[13] = HEp-2 cell cytotoxicity, dose response, cytotoxicity control for RSV inhibitor project, HTS (AID 2410); format: functional; conditions: human respiratory syncytial virus
[14] = inhibitors of intracellular T. cruzi replication, confirmation, NIH3T3 host cells, beta-gal luminescence (AID 2044); format: functional, cell-based;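 also: intracellular parasites grown in NIH/3T3 mouse fibroblasts as host cells; luminescent beta-galactosidase reporter signal from transgenic T. cruzi replicating inside host cells; inhibitors lower the luminescence signal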
[15] = cytotoxicity toward NIH3T3 fibroblasts, dose response, counter-screen, cell-based, ATP luminescence, mouse fibroblasts (AID 2010); format: functional;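 also: cells exposed to compound for about 90 hours before reading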

Cytochrome P450 3A4, sequence (P08684 whole entry): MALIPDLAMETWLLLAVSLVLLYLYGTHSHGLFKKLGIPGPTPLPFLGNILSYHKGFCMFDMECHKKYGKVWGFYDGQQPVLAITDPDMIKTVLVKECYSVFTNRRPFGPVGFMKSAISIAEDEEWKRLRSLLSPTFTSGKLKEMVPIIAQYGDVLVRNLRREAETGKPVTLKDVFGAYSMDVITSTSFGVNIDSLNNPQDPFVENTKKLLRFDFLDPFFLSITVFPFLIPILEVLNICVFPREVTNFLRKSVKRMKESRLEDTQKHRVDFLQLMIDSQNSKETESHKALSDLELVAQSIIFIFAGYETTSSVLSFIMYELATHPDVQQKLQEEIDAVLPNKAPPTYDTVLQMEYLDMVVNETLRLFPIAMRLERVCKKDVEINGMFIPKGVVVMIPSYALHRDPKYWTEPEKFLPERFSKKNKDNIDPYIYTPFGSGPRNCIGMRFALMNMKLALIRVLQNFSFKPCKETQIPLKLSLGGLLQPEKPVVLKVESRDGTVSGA
Cytochrome P450 2C9, sequence (P11712 whole entry): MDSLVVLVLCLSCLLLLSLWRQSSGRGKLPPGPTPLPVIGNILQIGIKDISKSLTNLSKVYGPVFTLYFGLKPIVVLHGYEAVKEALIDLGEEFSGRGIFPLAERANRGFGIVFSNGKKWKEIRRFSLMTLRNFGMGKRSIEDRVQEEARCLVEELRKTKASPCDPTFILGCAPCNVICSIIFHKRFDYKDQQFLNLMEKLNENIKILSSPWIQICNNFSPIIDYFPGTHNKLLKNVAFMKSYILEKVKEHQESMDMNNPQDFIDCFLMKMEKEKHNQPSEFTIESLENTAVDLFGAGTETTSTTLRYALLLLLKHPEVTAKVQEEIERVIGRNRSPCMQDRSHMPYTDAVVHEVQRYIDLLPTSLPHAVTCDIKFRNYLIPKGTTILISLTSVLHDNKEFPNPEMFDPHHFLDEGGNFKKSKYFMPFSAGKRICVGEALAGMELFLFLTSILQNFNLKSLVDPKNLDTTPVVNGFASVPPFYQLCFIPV
Cytochrome P450 2D6, sequence (P10635 whole entry): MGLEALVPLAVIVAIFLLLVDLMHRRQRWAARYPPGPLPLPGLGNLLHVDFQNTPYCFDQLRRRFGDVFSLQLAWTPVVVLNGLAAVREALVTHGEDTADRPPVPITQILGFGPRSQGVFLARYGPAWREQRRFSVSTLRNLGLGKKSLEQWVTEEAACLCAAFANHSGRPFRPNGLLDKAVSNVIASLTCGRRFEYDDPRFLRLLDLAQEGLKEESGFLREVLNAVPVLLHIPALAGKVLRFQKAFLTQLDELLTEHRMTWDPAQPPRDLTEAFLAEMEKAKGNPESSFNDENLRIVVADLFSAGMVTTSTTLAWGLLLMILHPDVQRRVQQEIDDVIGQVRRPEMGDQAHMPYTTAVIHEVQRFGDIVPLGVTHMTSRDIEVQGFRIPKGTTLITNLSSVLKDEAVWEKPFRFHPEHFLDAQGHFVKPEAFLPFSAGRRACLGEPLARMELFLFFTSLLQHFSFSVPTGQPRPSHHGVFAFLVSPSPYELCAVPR

SMILES: O=C(O)C[S+]([O-])c1ccc2c3c(cccc13)C(=O)c1ccccc1-2 (configuration not stated)
- AC50 [1]: 3.98 µM (inconclusive)
- AC50 [2]: 6.31 µM (inconclusive)

SMILES: COc1ccc(OCc2cc(C(=O)N(C)Cc3cc(C)no3)no2)c(Cl)c1
- EC50 [3]: 1.42 µM (active)
- EC50 [4]: 65.1 µM (active)
- EC50 [5]: 10.1 µM (active)

SMILES: O=c1cnc2cnc(N3CCNCC3)nc2n1CCc1ccccc1
- AC50 [6]: 15.8 µM (inconclusive)
- AC50 [1]: 15.8 µM (inconclusive)
- AC50 [2]: 20 µM (inconclusive)

SMILES: CCN1C(=O)/C(=C\N2CCN(c3cccc(Cl)c3)CC2)SC1=S
- AC50 [7]: 1.77 µM (active)

SMILES: COc1cccc(-n2nnc3c(=O)n(Cc4ccccc4Cl)cnc32)c1
- EC50 [8]: > 150 µM (not active)
- EC50 [9]: > 195 µM (not active)
- EC50 [10]: > 150 µM (not active)
- EC50 [11]: > 150 µM (not active)

SMILES: Oc1ccc(Br)cc1-c1cc(-c2ccccc2)[nH]n1
- AC50 [7]: 4.95 µM (active)

SMILES: CNC(C)C#Cc1ccc2sc3cc(OC)c(OC)cc3c(=O)c2c1 (configuration not stated)
- EC50 [3]: 22.3 µM (active)
- EC50 [4]: 15.3 µM (active)
- EC50 [5]: > 120 µM (not active)

SMILES: O=c1c2c(-c3ccccc3)ccnc2[nH]n1-c1ccccc1
- EC50 [3]: > 120 µM (not active)
- EC50 [4]: 10.8 µM (active)
- EC50 [5]: > 120 µM (not active)

SMILES: O=C(Cc1csc(NC(=O)Nc2cccc(Cl)c2)n1)NCc1cccnc1
- EC50 [8]: 3.19 µM (active)
- EC50 [10]: > 150 µM (not active)
- EC50 [11]: 13.7 µM (active)

SMILES: Cc1cc(C)c2c(NC(=O)C3CC3)nn(C)c2n1
- EC50 [12]: > 260 µM (inactive)

SMILES: Cc1ccc(OC(=O)NC2CCS(=O)(=O)C2)cc1C (configuration not stated)
- EC50 [3]: > 120 µM (not active)
- EC50 [4]: > 120 µM (not active)
- EC50 [5]: > 120 µM (not active)

SMILES: O=C(Nc1ccccc1)C1=C[C@@H](c2csc3ccccc23)C[C@@H](OCc2ccc(CO)cc2)O1
- AC50 [7]: 2.65 µM (active)

SMILES: O=C(CSc1nc(N2CCOCC2)nc(N2CCOCC2)n1)Nc1cccc(C(F)(F)F)c1
- EC50 [8]: > 150 µM (not active)
- EC50 [10]: > 150 µM (not active)
- EC50 [11]: > 150 µM (not active)

SMILES: Cn1c(=O)c(/C=C/c2ccc(F)cc2)nc2ccccc21
- EC50 [12]: 36.5 µM (active)

SMILES: CC1CCCC(N=C(S)Nc2ccc(SC(F)F)cc2)C1C (configuration not stated)
- AC50 [7]: 5.61 µM (active)

SMILES: CCOC(=O)C1CCN(c2c(NCc3ccc(C(=O)NCCC(C)C)cc3)c(=O)c2=O)CC1
- AC50 [6]: 0.398 µM (inconclusive)
- AC50 [1]: 7.94 µM (inconclusive)
- AC50 [2]: 7.94 µM (inconclusive)

SMILES: CCCC(C)c1nnc(NC(=O)COc2ccc3c(c2)OCO3)s1 (configuration not stated)
- AC50 [7]: 5.69 µM (active)

SMILES: CCC(C(=O)N1CCC(N2CCCCC2)CC1)n1nc(C)c2sc3ccccc3c2c1=O (configuration not stated)
- EC50 [8]: > 150 µM (not active)
- EC50 [10]: > 150 µM (not active)
- EC50 [11]: > 150 µM (not active)

SMILES: COc1ccccc1NC(=O)c1ccc(S(=O)(=O)N2CCCC(C)C2)cc1 (configuration not stated)
- AC50 [7]: > 195 µM (inactive)

SMILES: CCCCCCNC(=O)CN=C(S)N(Cc1cccs1)C1CCCCC1
- EC50 [12]: > 260 µM (inactive)

SMILES: O=C(COc1ccc(Br)cc1Br)NC(=O)NC1CCCC1
- EC50 [3]: 8.14 µM (active)
- EC50 [4]: 33.4 µM (active)
- EC50 [5]: > 120 µM (not active)

SMILES: Cc1ccccc1C(=O)ON=C(N)c1cccc([N+](=O)[O-])c1
- EC50 [3]: 13.8 µM (active)
- EC50 [4]: 17 µM (active)
- EC50 [5]: 27.5 µM (active)

SMILES: CC1(C)OC(C(O)(c2ccccc2)c2ccccc2)[C@@H](C(O)(c2ccccc2)c2ccccc2)O1 (some centres not stated)
- EC50 [8]: 2.95 µM (active)
- EC50 [10]: 2.78 µM (active)
- EC50 [11]: > 150 µM (not active)

SMILES: Nc1nc(CSCc2ccccc2)nc(N2CCOCC2)n1
- EC50 [3]: > 120 µM (not active)
- EC50 [4]: 6.28 µM (active)
- EC50 [5]: 50.7 µM (active)

SMILES: Oc1ccc2ccccc2c1CN1CCN(c2ccccc2)CC1
- EC50 [12]: 49.8 µM (active)

SMILES: Cc1ccc2nc(Nc3nc(=O)cc(-c4ccccc4)[nH]3)nc(C)c2c1
- EC50 [10]: > 150 µM (not active)

SMILES: Cc1ccc2nc(Nc3nc(O)cc(-c4ccccc4)n3)nc(C)c2c1
- EC50 [8]: 2.94 µM (active)
- EC50 [11]: 6.98 µM (active)

SMILES: CC(=O)c1cccc(N(CC(=O)Nc2ccc(F)cc2F)S(C)(=O)=O)c1
- EC50 [12]: 176 µM (active)

SMILES: CC1CCC(NC(=O)Cn2c(=O)[nH]c3ccsc3c2=O)CC1 (configuration not stated)
- EC50 [3]: 12.4 µM (active)
- EC50 [4]: 29.3 µM (active)
- EC50 [5]: 90.1 µM (active)

SMILES: C=CCn1c(SCC(N)=O)nnc1-c1cc2c(s1)CCC(CC)C2 (configuration not stated)
- EC50 [3]: 3 µM (active)
- EC50 [4]: 27.7 µM (active)
- EC50 [5]: 5.64 µM (active)

SMILES: COc1cccc(Oc2nnnn2-c2ccccc2)c1
- EC50 [3]: 0.44 µM (active)
- EC50 [4]: 54.7 µM (active)
- EC50 [5]: > 120 µM (not active)

SMILES: COc1cccc(-c2ccc(C#N)c(OC(=O)c3c(Cl)cccc3Cl)n2)c1
- CC50 [13]: 28.1 µM (active)
- AC50 [7]: 3.52 µM (active)

SMILES: Cc1ccc(C(=O)CCC2CCCCC2=O)cc1 (configuration not stated)
- EC50 [3]: 13.2 µM (active)
- EC50 [4]: 36.7 µM (active)
- EC50 [5]: 28.4 µM (active)

SMILES: Cc1ccc(-c2[nH]ncc2C(=O)c2ccc(Br)cc2)c(O)c1
- EC50 [12]: > 260 µM (inactive)

SMILES: CCOc1ccc2nc(N3CCCC(C(=O)NCC4CCCO4)C3)sc2c1 (configuration not stated)
- EC50 [3]: 17.5 µM (active)
- EC50 [4]: 17.1 µM (active)
- EC50 [5]: 17.2 µM (active)

SMILES: Cc1nn(C)c(C(=O)Nc2ccc(S(=O)(=O)NC34CC5CC(CC(C5)C3)C4)cc2)c1Br
- EC50 [8]: 8.5 µM (active)
- EC50 [10]: 16.8 µM (active)
- EC50 [14]: 2.79 µM (active)
- EC50 [15]: > 60 µM (inconclusive)
- EC50 [11]: 16.5 µM (active)

SMILES: Cc1cc2c3c(c1)C1(C(=O)N3C(C)(C)CC2C)C(C#N)=C(N)Oc2cc(O)ccc21 (configuration not stated)
- EC50 [14]: 1.41 µM (active)
- EC50 [15]: > 60 µM (not active)
- EC50 [12]: 54.7 µM (active)

SMILES: CCc1ccccc1NC(=O)CC(c1ccc(OC)cc1)n1cccc1 (configuration not stated)
- EC50 [12]: > 260 µM (inactive)

SMILES: CCOC(=O)CC1C(=O)NCCN1S(=O)(=O)c1cc(Cl)c(Cl)cc1Cl (configuration not stated)
- EC50 [12]: > 260 µM (inactive)

SMILES: Brc1ccccc1-n1nnc(-c2cnc3ccccc3c2)n1
- EC50 [12]: > 260 µM (inactive)

SMILES: COc1cc(/C=N/Nc2ncnc3sc4c(c23)CCC4)ccc1O
- EC50 [8]: 3.88 µM (active)
- EC50 [10]: 5.06 µM (active)
- EC50 [11]: > 150 µM (not active)

SMILES: COc1ccc(/C=N/N(c2ccccc2)c2ccccc2)cc1O
- AC50 [7]: 6.76 µM (active)

SMILES: C/C(=N\NC(=O)c1nnn(-c2nonc2N)c1CN1CCCCC1)c1ccccc1O
- AC50 [7]: 3.42 µM (active)

SMILES: Cc1ccc(/C=c2\s/c(=C(/C#N)C(=O)N3CCCC3)n(Cc3ccco3)c2=O)s1
- EC50 [12]: 9.99 µM (active)

SMILES: C=CCn1c(O)cc(=O)nc1SC(C)CC (configuration not stated)
- EC50 [8]: 21.3 µM (active)
- EC50 [10]: > 150 µM (not active)
- EC50 [11]: > 150 µM (not active)
